This note sets out measurements from patent publication US10166218B2, “3-(1H-indol-2-yl)-1H-pyrazolo[3,4-C]pyridines and therapeutic uses thereof” (Samumed, LLC, priority 2015, dated 2019).

Experiment [1] has as its system primary human fibroblasts derived from IPF patients (LL29 cells) treated with TGF-β1; α-smooth muscle actin (αSMA). Description: Inhibition of the fibrotic process: αSMA staining in TGF-β1 treated primary human fibroblasts from IPF patients (LL29 cells). In kind it is cell-based. The settings on record: Fibroblast, 96 h, TGF-β1 20 ng/mL, 4 days; for EC50: % cells positive for αSMA; for inhibition at 10 µM: αSMA, read-out: percent inhibition at 10 μM (given for EC50 of >10 μM). The method in brief: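 Compound dilutions from 10 μM down to […] are dispensed, LL29 cells added in F12 with 1% FBS, and TGF-β1 (20 ng/mL) follows after 1 h. After 4 days, live-cell αSMA positivity is measured by immunofluorescence and normalized to TGF-β1-treated wells to derive EC50.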

The subject of experiment [2] is IL-6 (THP-1 cells). Put plainly: Inhibition of IL-6 in LPS-stimulated THP-1 human monocyte cells (HTRF). It counts as cell-based. Conditions: for EC50: inhibition of IL-6 in LPS-stimulated THP-1 cells, HTRF, 10-point dose-response starting from 10 μM; for inhibition at 10 µM: IL-6 assay in LPS-stimulated THP-1 cells, given only where EC50 >10 μM, meaning not given (top concentration 10 μM), read-out: percentage given in parentheses after EC50 >10. Put shortly:
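THP-1 cells, serum-reduced (1% FBS) for 24 h, were preincubated with compound (10-point 1:3 series from 10 μM, 0.1% DMSO) for 2 h, then stimulated with 500 ng/mL LPS for 22 h at 37° C. IL-6 was read by HTRF (665/620 nm ratio) and normalized to DMSO. EC50 from four-parameter fit; % inhibition at 10 μM given if EC50 >10 μM.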
On the technique in general: In TR-FRET formats the signal depends on donor and acceptor labels being close together.

`Cn1cc(-c2cc3c(-c4cc5c(-c6ccncc6)cccc5[nH]4)n[nH]c3cn2)cn1` [Compound 600, 5-(1-Methyl-1H-pyrazol-4-yl)-3-(4-(pyridin-4-yl)-1H-indol-2-yl)-1H-pyrazolo[3,4-c]pyridine]: the values for the concentration giving a half-maximal response (EC50) in experiment [1] and in experiment [2] were 0.013 µM and 0.044 µM, respectively.
On to `O=C(CC1CCNCC1)Nc1cncc(-c2cc3c(-c4cc5c(-c6ccccn6)cccc5[nH]4)n[nH]c3cn2)c1` [Compound 621, 2-(Piperidin-4-yl)-N-(5-(3-(4-(pyridin-2-yl)-1H-indol-2-yl)-1H-pyrazolo[3,4-c]pyridin-5-yl)pyridin-3-yl)acetamide], for which the results for the EC50 in experiment [1] and in experiment [2] were 3.14 µM and 1.65 µM, respectively.
In the case of `c1cc(N2CCCCC2)c2cc(-c3n[nH]c4cnc(-c5cncc(OC6CCCCC6)c5)cc34)[nH]c2c1` [Compound 635, 5-(5-(Cyclohexyloxy)pyridin-3-yl)-3-(4-(piperidin-1-yl)-1H-indol-2-yl)-1H-pyrazolo[3,4-c]pyridine], the figures for the EC50 in experiment [1] and in experiment [2] were 1.32 µM and more than 10 µM, respectively. Also, the inhibition at 10 µM in experiment [2] is 0%.
The like results for `c1cc(-c2ccoc2)c2cc(-c3n[nH]c4cnc(-c5cn[nH]c5)cc34)[nH]c2c1` [Compound 711, 3-(4-(Furan-3-yl)-1H-indol-2-yl)-5-(1H-pyrazol-4-yl)-1H-pyrazolo[3,4-c]pyridine] were, in that order, 0.125 µM, more than 10 µM and 0%.
As for `c1csc(-c2cccc3[nH]c(-c4n[nH]c5cnc(C6CCNCC6)cc45)cc23)c1` [Compound 725, 5-(Piperidin-4-yl)-3-(4-(thiophen-2-yl)-1H-indol-2-yl)-1H-pyrazolo[3,4-c]pyridine], in experiment [1], the EC50 (usually the concentration that produces a half-maximal response) is more than 10 µM and the inhibition at 10 µM was found to be 4.5%. In experiment [2], the inhibition at 10 µM came to 45.4% and the EC50 is more than 10 µM.
Regarding `CN(C)CCNc1cc(F)cc(-c2cccc3[nH]c(-c4n[nH]c5cnc(-c6cncc(O)c6)cc45)cc23)c1` [Compound 817, 5-(3-(4-(3-((2-(Dimethylamino)ethyl)amino)-5-fluorophenyl)-1H-indol-2-yl)-1H-pyrazolo[3,4-c]pyridin-5-yl)pyridin-3-ol], the EC50 in experiment [1] was 0.519 µM; in experiment [2], 0.232 µM.
With `Cn1cc(-c2cc3c(-c4cc5ncccc5[nH]4)n[nH]c3cn2)cn1` [Compound 1022, 5-(1-Methyl-1H-pyrazol-4-yl)-3-(1H-pyrrolo[3,2-b]pyridin-2-yl)-1H-pyrazolo[3,4-c]pyridine], the EC50 in experiment [1] was more than 10 µM; in experiment [2], 0.344 µM. In experiment [1], the inhibition at 10 µM is 44.5%.
Take `CN(C)CCOc1cncc(-c2cc3c(-c4cc5ncccc5[nH]4)n[nH]c3cn2)c1` [Compound 1029, 2-((5-(3-(1H-Pyrrolo[3,2-b]pyridin-2-yl)-1H-pyrazolo[3,4-c]pyridin-5-yl)pyridin-3-yl)oxy)-N,N-dimethylethan-1-amine]: the EC50 was 1.72 µM in experiment [1] and 2.45 µM in experiment [2].
